Experimental data taken from patent US20240251792A1, “WEED CONTROL METHOD” (SYNGENTA CROP PROTECTION AG, priority 2021, published 2024).
Read-outs that look alike come from different tables or passages of the source.

Columns and labels:
Type in all cases: in vivo
LOLPE = experiment: Pre-emergence biological efficacy (Table 3); details: 1000 g/ha, after 13 days
Method in brief: (§1)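 Pre-emergence spray one day after sowing; the compound, made up as a 50 g/l AMA-based formulation, was diluted with 0.2% Genapol X080. Visual damage rating 13 days later on a 0-100 scale, with glasshouse conditions of 24/18° C day/night and 15 h light.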

SETFA = experiment: Pre-emergence biological efficacy (Table 3); details: Setaria faberi, 312 h, 1000 g/ha, after 13 days, read-out: evaluation (100=total damage to plant; 0=no damage to plant)
Method in brief: as §1

AMARE = experiment: Pre-emergence biological efficacy (Table 3); details: Amaranthus retroflexus, 312 h, 1000 g/ha, after 13 days, read-out: evaluation (100=total damage to plant; 0=no damage to plant)
Method in brief: as §1

IPOHE = experiment: Pre-emergence biological efficacy (Table 3); details: Ipomoea hederacea, 312 h, 1000 g/ha, after 13 days, read-out: evaluation (100=total damage to plant; 0=no damage to plant)
Method in brief: as §1

ECHCG = experiment: Pre-emergence biological efficacy (Table 3); details: Echinochloa crus-galli, 312 h, 1000 g/ha, after 13 days, read-out: evaluation (100=total damage to plant; 0=no damage to plant)
Method in brief: as §1

weeds and/or crops = experiment: Post-emergence biological efficacy (Table 4); details: 1000 g/ha, evaluated after 13 days; for pest or weed control at 1000 g/ha: 312 h
Method in brief: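 Scores are visual damage (0 = none, 100 = total), read 13 days after treatment at 24/18 °C with 15 h light. Plants had been sown in standard soil and grown 14 days before a spray of compound in F50/acetone, diluted with 0.2% Genapol X080.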

SOLNI = experiment: Pre-emergence biological efficacy (Table 3); details: 1000 g/ha, after 13 days
Method in brief: as §1

ZEAMX = experiment: Pre-emergence biological efficacy (Table 3); details: 312 h, 1000 g/ha, after 13 days, read-out: evaluation (100=total damage to plant; 0=no damage to plant)
Method in brief: as §1

AMAPA = experiment: Pre-emergence biological efficacy (Table 3); details: 312 h, 1000 g/ha, after 13 days, read-out: evaluation (100=total damage to plant; 0=no damage to plant)
Method in brief: as §1

[1] = Amaranthus retroflexus, AMARE, read-out: damage to plant AMARE (100=total damage; 0=no damage)
[2] = Echinochloa crus-galli, ECHCG, read-out: damage to plant ECHCG (100=total damage; 0=no damage)
[3] = Ipomoea hederacea, IPOHE, read-out: damage to plant IPOHE (100=total damage; 0=no damage)
[4] = Setaria faberi, SETFA, read-out: damage to plant SETFA (100=total damage; 0=no damage)
[5] = AMAPA, read-out: damage to plant AMAPA (100=total damage; 0=no damage)
[6] = ZEAMX, read-out: damage to plant ZEAMX (100=total damage; 0=no damage)

COc1cccc(Cl)c1C(F)(F)C(=O)O [Compound 1-65, 2-(2-Chloro-6-methoxy-phenyl)-2,2-difluoro-acetic acid]
evaluation (100=total damage to plant; 0=no damage to plant) (LOLPE): 0
pest or weed control at 1000 g/ha (SETFA): 0%
pest or weed control at 1000 g/ha (AMARE): 60%
pest or weed control at 1000 g/ha (IPOHE): 40%
pest or weed control at 1000 g/ha (ECHCG): 0%
pest or weed control at 1000 g/ha (weeds and/or crops; [1]): 70%
pest or weed control at 1000 g/ha (weeds and/or crops; [2]): 0%
pest or weed control at 1000 g/ha (weeds and/or crops; [3]): 70%
damage to plant LOLPE (100=total damage; 0=no damage) (weeds and/or crops): 0
pest or weed control at 1000 g/ha (weeds and/or crops; [4]): 0%

COc1c(Cl)ccc(Cl)c1C(F)(F)C(=O)O [Compound 1-326, 2-(3,6-dichloro-2-methoxy-phenyl)-2,2-difluoro-acetic acid]
evaluation (100=total damage to plant; 0=no damage to plant) (LOLPE): 10
pest or weed control at 1000 g/ha (SETFA): 10%
pest or weed control at 1000 g/ha (AMARE): 50%
pest or weed control at 1000 g/ha (IPOHE): 20%
pest or weed control at 1000 g/ha (ECHCG): 30%
pest or weed control at 1000 g/ha (weeds and/or crops; [1]): 80%
pest or weed control at 1000 g/ha (weeds and/or crops; [2]): 0%
pest or weed control at 1000 g/ha (weeds and/or crops; [3]): 80%
damage to plant LOLPE (100=total damage; 0=no damage) (weeds and/or crops): 0
pest or weed control at 1000 g/ha (weeds and/or crops; [4]): 0%

O=C(O)C(F)(F)c1c(Cl)ccc2cc(Cl)cnc12 [Compound 1-418, 2-(3,7-Dichloro-8-quinolyl)-2,2-difluoro-acetic acid]
evaluation (100=total damage to plant; 0=no damage to plant) (LOLPE): 0
pest or weed control at 1000 g/ha (SETFA): 50%
pest or weed control at 1000 g/ha (AMARE): 30%
evaluation (100=total damage to plant; 0=no damage to plant) (SOLNI): 10
pest or weed control at 1000 g/ha (IPOHE): 50%
pest or weed control at 1000 g/ha (ECHCG): 20%
pest or weed control at 1000 g/ha (weeds and/or crops; [1]): 50%
pest or weed control at 1000 g/ha (weeds and/or crops; [2]): 0%
pest or weed control at 1000 g/ha (weeds and/or crops; [3]): 40%
damage to plant LOLPE (100=total damage; 0=no damage) (weeds and/or crops): 0
damage to plant SOLNI (100=total damage; 0=no damage) (weeds and/or crops; SOLNI): 90
pest or weed control at 1000 g/ha (weeds and/or crops; [4]): 0%

N#Cc1c(F)ccc(C(F)(F)C(=O)O)c1Cl [Compound 1-460, 2-(2-Chloro-3-cyano-4-fluoro-phenyl)-2,2-difluoro-acetic acid]
plant injury at 1000 g/ha (ZEAMX): 10%
pest or weed control at 1000 g/ha (SETFA): 10%
pest or weed control at 1000 g/ha (AMAPA): 90%
pest or weed control at 1000 g/ha (AMARE): 80%
pest or weed control at 1000 g/ha (IPOHE): 70%
pest or weed control at 1000 g/ha (ECHCG): 0%
pest or weed control at 1000 g/ha (weeds and/or crops; [5]): 90%
pest or weed control at 1000 g/ha (weeds and/or crops; [6]): 10%
pest or weed control at 1000 g/ha (weeds and/or crops; [1]): 90%
pest or weed control at 1000 g/ha (weeds and/or crops; [2]): 20%
pest or weed control at 1000 g/ha (weeds and/or crops; [3]): 60%
pest or weed control at 1000 g/ha (weeds and/or crops; [4]): 40%

COc1ccc(C(F)(F)C(=O)O)c([N+](=O)[O-])c1F [Compound 1-461, 2,2-Difluoro-2-(3-fluoro-4-methoxy-2-nitro-phenyl)acetic acid]
plant injury at 1000 g/ha (ZEAMX): 10%
pest or weed control at 1000 g/ha (SETFA): 30%
pest or weed control at 1000 g/ha (AMAPA): 30%
pest or weed control at 1000 g/ha (AMARE): 40%
pest or weed control at 1000 g/ha (IPOHE): 20%
pest or weed control at 1000 g/ha (ECHCG): 0%
pest or weed control at 1000 g/ha (weeds and/or crops; [5]): 80%
pest or weed control at 1000 g/ha (weeds and/or crops; [6]): 0%
pest or weed control at 1000 g/ha (weeds and/or crops; [1]): 80%
pest or weed control at 1000 g/ha (weeds and/or crops; [2]): 10%
pest or weed control at 1000 g/ha (weeds and/or crops; [3]): 20%
pest or weed control at 1000 g/ha (weeds and/or crops; [4]): 30%
